Assay results from patent publication US20230301924A1, “PHARMACEUTICAL FORMULATION” (Janssen Pharmaceuticals, Inc., priority 2020, published 2023).

What was measured:
Assay type in all cases: physicochemical
[1] = Solubility of compound (a) in mixed excipients (TPGS with Precirol ATO 5, PEG6000 or PEG3350)
Protocol: The solubility of these mixed excipients with compound (a) was then tested. Different ratios of the excipients were mixed at different temperatures (Table 6); then compound (a) was added and the mixtures stirred at the same temperature. The samples were analyzed by UPLC (see method above).

[2] = Solubility test in PEG1000
Protocol: About 0.5 g of compound (a) was weighed into 4 mL glass vials, 1.5 g of molten PEG1000 were then added and kept stirring at 40° C. or 50° C. at 700 rpm. After stirring for 24 hours, the obtained mixtures were transferred into a filter centrifugal tube and centrifuged at 40° C. for 1 minute at 14000 rpm rate. The solution in the bottom of filter centrifugal tube wad weighed into 25 mL volumetric flasks (about 25 mg), diluent was added ACN:H2O=1:1 v/v, ultrasonicated for 10 min and more diluent was added to scale and analyzed by UPLC (see method above).

[3] = Solubility test in TPGS with different ratios of PEG1000
Protocol: About 0.2 g of compound (a) was weighed into 1.5 mL HPLC vials, 0.6 g of molten TPGS, TPGS with 5%, 10% or 15% PEG1000 (in w/w of TPGS) were then added and kept stirring at 45° C. at 700 rpm. Additionally to each of these mixtures, 100 ppm of Ascorbic Palmitate were added. After stirring for 24 hours, they were transferred into filter centrifugal tube and centrifuged at 40° C. for 5 minutes at 14000 rpm rate. The solutions in the bottom of filter centrifugal tube were weighed into 25 mL volumetric flasks (about 10-20 mg), diluent was added ACN:H2O=1:1 v/v, ultrasonicated for 10 min and more diluent was added to scale and analyze by UPLC (see method above). The solid residues after solubility test were collected and analyzed by XRPD (the solid residue in TPGS and TPGS with 5% PEG1000 were washed with water at 50° C. 3 times and analyzed by XRPD).
Solubility test of compound (a) in TPGS with different ratio of PEG1000 after stirring at 45° C. for 96 hours were further tested to determine the effect of time on solubility and XRPD pattern.

[4] = Solubility test in Gelucire 50/13 and PEG 3350
Protocol: Compound (a) was weighed into a 1.5 mL HPLC vial, added about 1 mL or 880 mg of molten media, then kept stirring at different temperature at 700 rpm (see details in Table 1). Compound (a) was added until a suspension was visually observable. After stirring for about 24 hours, the obtained mixtures were quickly transferred to a filter centrifugal tube and centrifuged at 40° C. for 1 minute at 14000 rpm rate. The solution in the bottom of the filter centrifugal tube was weighed into 10 mL or 25 mL volumetric flasks (about 15-20 mg), diluents were added (ACN: water=1:1 v/v for PEG3350 or MeOH:water=8:2 v/v for Gelucire 50/13), ultrasonicated for 10 min and more diluent was added to scale and analyzed by UPLC (see method above).

Solubility ([1]; in TPGS:ATO5 90:10 w/w, 60° C.): 216.1 mg/g
Solubility ([1]; in TPGS:ATO5 90:10 w/w, 65° C.): 219.0 mg/g
Solubility ([1]; in TPGS:ATO5 95:5 w/w, 60° C.): 270.0 mg/g
Solubility ([1]; in TPGS:ATO5 95:5 w/w, 65° C.): 295.5 mg/g
Solubility ([1]; in TPGS:ATO5 98:2 w/w, 60° C.): 228.2 mg/g
Solubility ([1]; in TPGS:ATO5 98:2 w/w, 65° C.): 248.5 mg/g
Solubility ([1]; in TPGS:PEG3350 90:10 w/w, 55° C.): 71.0 mg/g
Solubility ([1]; in TPGS:PEG3350 90:10 w/w, 60° C.): 76.2 mg/g
Solubility ([1]; in TPGS:PEG6000 90:10 w/w, 55° C.): 60.8 mg/g
Solubility ([1]; in TPGS:PEG6000 90:10 w/w, 60° C.): 66.6 mg/g
Solubility ([1]; in TPGS:PEG6000 95:5 w/w, 55° C.): 81.0 mg/g
Solubility ([1]; in TPGS:PEG6000 95:5 w/w, 60° C.): 84.0 mg/g
Solubility ([1]; in TPGS:PEG6000 98:2 w/w, 55° C.): 63.0 mg/g
Solubility ([1]; in TPGS:PEG6000 98:2 w/w, 60° C.): 66.8 mg/g
Solubility ([1]; in the Precirol ATO 5/TPGS system): > 200 mg/g
Solubility ([2]; in PEG1000): about 140 mg/g
Solubility ([2]; in PEG 1000, 40° C., 700 rpm for 24 hours): 141 mg/g
Solubility ([2]; in PEG 1000, 50° C., 700 rpm for 24 hours): 146 mg/g
Solubility ([3]; in TPGS + 5 vol % PEG1000 + 100 ppm AP, 45° C., 96 h): 186 mg/g
Solubility ([3]; in TPGS + 5 vol % PEG1000, 45° C., 24 h): 263 mg/g
Solubility ([3]; in TPGS + 10 vol % PEG1000 + 100 ppm AP, 45° C., 96 h): 157 mg/g
Solubility ([3]; in TPGS + 10 vol % PEG1000, 45° C., 24 h): 206 mg/g
Solubility ([3]; in TPGS + 15 vol % PEG1000 + 100 ppm AP, 45° C., 96 h): 144 mg/g
Solubility ([3]; in TPGS + 15 vol % PEG1000, 45° C., 24 h): 179 mg/g
Solubility ([3]; in TPGS + 100 ppm AP, 45° C., 96 h): 225 mg/g
Solubility ([3]; in TPGS, 45° C., 24 h): 274 mg/g
Solubility ([4]; in Gelucire 50/13, 55° C., 700 rpm for 24 hours): 141 mg/g
Solubility ([4]; in Gelucire 50/13, 60° C., 700 rpm for 24 hours): 148 mg/g
Solubility ([4]; in Gelucire 50/13 after stirring at 55° C. and 60° C. for 24 hours): higher than 120 mg/g
Solubility ([4]; in PEG 3350, 60° C., 700 rpm for 24 hours): 112 mg/g
Solubility ([4]; in PEG 3350, 65° C., 700 rpm for 24 hours): 121 mg/g
Solubility ([4]; in PEG 3350 at both 60° C. and 65° C.): ≤ 120 mg/g
Compound: COc1cc(NC(C(=O)c2c[nH]c3ccc(OC(F)(F)F)cc23)c2ccc(Cl)cc2OC)cc(S(C)(=O)=O)c1 (centres unmarked) [compound (a)]
